Test results: the supplement of paper PMC10307832

Key:
Assay in all cases: relative viability (nuclei count vs DMSO), 5 days (fraction); higher = more cells survive
Wnt-C59 + Phenformin = compound: CC1=NC=CC(=C1)C2=CC=C(C=C2)CC(=O)NC3=CC=C(C=C3)C4=CN=CC=C4 [Wnt-C59] + N=C(N)NC(=N)NCCc1ccccc1 [Phenformin] (partner 250 µM)
How it was run: (§1)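 Medians of duplicate plates are given as relative viability. That measure is the nuclei count in treated wells divided by the count in vehicle wells. Counts were taken on 4× images of lung cancer cell lines in 1536-well plates, 5 days after pin-tool dosing the day after seeding with one drug alone or a fixed anchor-drug dose plus five library-drug doses (not always all listed) in √10 steps.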

Lapatinib + Navitoclax = compound: CS(=O)(=O)CCNCc1ccc(-c2ccc3ncnc(Nc4ccc(OCc5cccc(F)c5)c(Cl)c4)c3c2)o1 [Lapatinib] + CC1(C)CCC(c2ccc(Cl)cc2)=C(CN2CCN(c3ccc(C(=O)NS(=O)(=O)c4ccc(N[C@H](CCN5CCOCC5)CSc5ccccc5)c(S(=O)(=O)C(F)(F)F)c4)cc3)CC2)C1 [Navitoclax] (partner 0.5 µM)
How it was run: as §1

Lapatinib + Crizotinib = compound: CS(=O)(=O)CCNCc1ccc(-c2ccc3ncnc(Nc4ccc(OCc5cccc(F)c5)c(Cl)c4)c3c2)o1 [Lapatinib] + C[C@@H](Oc1cc(-c2cnn(C3CCNCC3)c2)cnc1N)c1c(Cl)ccc(F)c1Cl [Crizotinib] (partner 1 µM)
How it was run: as §1

Lapatinib + Dasatinib = compound: CS(=O)(=O)CCNCc1ccc(-c2ccc3ncnc(Nc4ccc(OCc5cccc(F)c5)c(Cl)c4)c3c2)o1 [Lapatinib] + Cc1nc(Nc2ncc(C(=O)Nc3c(C)cccc3Cl)s2)cc(N2CCN(CCO)CC2)n1 [Dasatinib] (partner 0.075 µM)
How it was run: as §1

Cell Line: UMC-11
- relative viability (Wnt-C59 + Phenformin; first compound 0.001 µM): 0.305
- relative viability (Wnt-C59 + Phenformin; first compound 0.01 µM): 0.282
- relative viability (Wnt-C59 + Phenformin; first compound 0.03162 µM): 0.328
- relative viability (Wnt-C59 + Phenformin; first compound 0.1 µM): 0.32
- relative viability (Lapatinib + Navitoclax; first compound 0.02 µM): 0.352
- relative viability (Lapatinib + Navitoclax; first compound 0.06325 µM): 0.278
- relative viability (Lapatinib + Navitoclax; first compound 0.2 µM): 0.311
- relative viability (Lapatinib + Navitoclax; first compound 0.6325 µM): 0.318
- relative viability (Lapatinib + Navitoclax; first compound 2 µM): 0.314
- relative viability (Lapatinib + Crizotinib; first compound 0.02 µM): 0.541
- relative viability (Lapatinib + Crizotinib; first compound 0.06325 µM): 0.508
- relative viability (Lapatinib + Crizotinib; first compound 0.2 µM): 0.672
- relative viability (Lapatinib + Crizotinib; first compound 0.6325 µM): 0.578
- relative viability (Lapatinib + Crizotinib; first compound 2 µM): 0.659
- relative viability (Lapatinib + Dasatinib; first compound 0.02 µM): 0.45
- relative viability (Lapatinib + Dasatinib; first compound 0.06325 µM): 0.404
- relative viability (Lapatinib + Dasatinib; first compound 0.2 µM): 0.52
- relative viability (Lapatinib + Dasatinib; first compound 0.6325 µM): 0.453
- relative viability (Lapatinib + Dasatinib; first compound 2 µM): 0.421
